System: Sprague-Dawley rats
Test: Citrate in rats with ischemia/reperfusion injury or sham operation on a high phosphate diet with intermittent dehydration
Assay type: in vivo, rat
Conditions: day 60
Experimental: A total of 48 male and female Sprague-Dawley rats (150-200 g body weight at start of experiment) were divided in eight groups (A to H) containing 6 animals each (Table 1). On day 1 of the experiment groups A, B, E and F got 30 minutes of bilateral renal ischemia reperfusion injury, while control groups C, D, G and H were sham operated (12) (Table 1). The rats were given 48 hours to recover and BUN and serum creatinine levels were then determined.
On day 3 all groups (A to H) were put on a high phosphorus diet (NIH-07 diet, see reference #6) for 60 days. All groups were dehydrated for 8 hours once a week. While groups B, D, F and H received citrate (2% wt) in their drinking water, the other groups had access to regular tap water, except during periods of dehydration. As rats typically consume a daily average of 10 ml of water per 100 g of body weight, each rat of groups B, D, F and H received an approximate daily dosage of 2 g of citrate per kg of body weight.
On day 30 arterial blood samples were collected for pH, BUN and serum creatinine measurements.
On day 60 all animals were sacrificed. Arterial blood samples were collected for serum pH, phosphorus, BUN and creatinine measurements. Bladder urine samples were collected for pH measurements. Kidneys were longitudinally dissected, formalin fixed and paraffin embedded for generation of light microscopic sections. Additional paraffin embedded tissue sections were stained with “von Kossa” stain for calcium crystal identification and LM tissue sections were scored for acute tubular injury as described elsewhere.
Statistically significant differences between experimental groups were determined using Bonferroni t-tests and analysis of variance.

O=C(O)CC(O)(CC(=O)O)C(=O)O [citrate]
Decrease of serum phosphorus levels (all groups (male/female, I/R or sham), high phosphate diet, citrate in drinking water): 30% | Effect on serum pH (all study groups): did not have a significant effect | Effect on urine pH (all study groups): did not have a significant effect | Histology: tubular injury, casts and calcium phosphate crystals (female I/R rats with citrate supplementation): focal tubular dilation but no casts and no calcium phosphate crystals | Histology: tubular morphology (female sham operated rats, without vs with citrate): no significant difference in tubular morphology | Histology: morphologic changes of ATN (male I/R rats with citrate supplementation): markedly reversed | Serum BUN levels (renal function) (male and female rats with I/R, high phosphate diet, citrate 2% wt in drinking water): returned BUN levels to near control values | Histology: tubular injury and cast formation (male sham operated rats with citrate supplementation): markedly decreased tubular injury and cast formation
